# EP0731697B1, “SSI TYRPHOSTINS AND PHARMACEUTICAL COMPOSITIONS” (priority 1993, dated 1995)
# Read-outs that look alike come from different tables or passages of the source.
# Assays:
# mice [1] = test system: mice
# TNF-α = assay: LPS induced increase in serum TNF-α levels in mice; assay type: in vivo; conditions: for serum TNF-α levels: 400 ug/mouse i.p. 2 hrs prior to LPS, bled after 2 hours
# Source text: TNF-α was implicated to mediate many of the toxic effect of LPS. For example, the effect of SSI 3 on serum TNF-α levels in mice which had been treated with LPS was investigated. LPS induced a rapid increase in serum TNF-α levels. […] […] The bioassay gave somewhat higher levels compared to the ELISA. This finding may indicate that the serum from LPS-treated mice contained in addition to TNF-α, other cytotoxic factors.
# The amount of TNF-α was quantitated by assessing the extent of killing of the TNF-α sensitive cell line (A9) essentially as described by Ruff and Gilford, G. E. J. Immunol. 125, 1671-1677, (1980). Briefly, mouse A9 fibroblasts were plated in 96-well flat-bottom micro-titer plates at 30,000 cells /0.1 ml to establish a dense monolayer. After incubation for 24 hr at 37 C in a humidified 5% CO2 atmosphere, cycloheximide was added to a final concentration of 50 ug/ml and 100 ul of serially diluted test samples were added to the wells. After incubation for additional 18 hr the supernatants were carefully aspirated, the monolayer were washed twice with PBS and 200 ul of neutral red solution (0.02%) was added. After incubation for 2 hr, cells were washed and the dye that had been absorbed by the live cells was extracted using 200 ul of 50% ethanol. The concentration of the dye was determined by an ELISA autoreader using a 550 nm filter. Murine TNF-α ELISA kit from ENDOGEN Inc., was used for quancitation of murine TNF-α.
# granulocytes = assay: LPS-induced granulocyte accumulation in lungs and blood leukocyte changes; assay type: in vivo, Mouse
# Source text: As shown, tyrphostins exert a dramatic protective effect against LPS-induced lethal toxicity. Of the effects studied, only LPS-induced accumulation of granulocytes in the lungs and alteration in blood lymphocyte and granulocytes were not affected by SSI 3. […] The indication is therefore that tyrphostins are effective in preventing septic shock following Gram-negative sepsis, experimentally or clinically.
# Mouse blood leukocyte count and differential analysis were done using Cell-Dyn 1600, Hematology Analyzer (Sequoia Turner Corporation, U.S.A).
# [2] = test system: Murine fibroblastic cells (A9)
# Protocol: Tyrphostins at different concentration were added 2 hr prior to TNF. After 24 hrs cells viability was determined by vital staining using neutral red.
# Recombinant human TNFα is added to a mouse fibroblastic cell line (A9), cultured in the presence of cyclohexamine and cell viability is monitored after 20 hours. […] The percentage of live cells was measured from 2 hours prior to administration until 4 hours after administration for a control and for TNF at concentrations of 0.2 ng/ml, 0.05 ng/ml, and 1.0 ng/ml.
# Her-2/neu receptor = Her-2/neu receptor (Homo sapiens, UniProt P04626); conditions: even at concentrations above 100 uM; cited from earlier work
# Her-2/neu receptor, sequence (P04626 23-1255): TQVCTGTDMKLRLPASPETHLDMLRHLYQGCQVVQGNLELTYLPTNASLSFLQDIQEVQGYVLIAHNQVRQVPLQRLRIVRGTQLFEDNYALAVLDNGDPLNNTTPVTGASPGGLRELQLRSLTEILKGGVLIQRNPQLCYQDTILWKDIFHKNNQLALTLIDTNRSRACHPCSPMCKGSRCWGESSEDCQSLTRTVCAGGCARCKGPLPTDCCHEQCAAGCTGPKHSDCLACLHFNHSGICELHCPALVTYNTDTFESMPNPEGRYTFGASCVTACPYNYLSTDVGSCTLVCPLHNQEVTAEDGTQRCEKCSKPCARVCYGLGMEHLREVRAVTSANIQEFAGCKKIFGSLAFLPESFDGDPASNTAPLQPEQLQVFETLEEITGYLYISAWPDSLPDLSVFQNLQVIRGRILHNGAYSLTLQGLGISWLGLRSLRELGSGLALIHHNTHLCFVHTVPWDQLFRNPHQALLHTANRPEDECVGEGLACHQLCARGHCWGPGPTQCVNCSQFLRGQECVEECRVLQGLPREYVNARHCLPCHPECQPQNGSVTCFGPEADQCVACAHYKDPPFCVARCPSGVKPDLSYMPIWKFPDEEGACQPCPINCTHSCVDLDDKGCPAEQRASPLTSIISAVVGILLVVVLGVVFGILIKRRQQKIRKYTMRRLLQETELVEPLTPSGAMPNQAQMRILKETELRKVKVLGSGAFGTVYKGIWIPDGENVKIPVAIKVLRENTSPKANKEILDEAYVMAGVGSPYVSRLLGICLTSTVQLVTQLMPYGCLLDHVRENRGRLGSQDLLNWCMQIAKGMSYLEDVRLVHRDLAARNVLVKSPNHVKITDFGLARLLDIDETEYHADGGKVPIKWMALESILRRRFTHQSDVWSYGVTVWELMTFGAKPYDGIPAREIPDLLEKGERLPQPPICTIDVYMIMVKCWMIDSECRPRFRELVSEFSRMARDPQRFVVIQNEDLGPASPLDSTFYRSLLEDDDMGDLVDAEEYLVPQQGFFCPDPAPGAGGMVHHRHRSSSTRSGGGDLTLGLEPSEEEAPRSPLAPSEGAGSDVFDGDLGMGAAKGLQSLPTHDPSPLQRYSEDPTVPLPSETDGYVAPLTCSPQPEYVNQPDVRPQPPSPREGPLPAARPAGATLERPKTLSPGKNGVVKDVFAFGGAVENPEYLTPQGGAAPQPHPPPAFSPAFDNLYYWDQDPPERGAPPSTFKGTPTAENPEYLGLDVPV
# mice [3] = assay: LPS toxicity and mortality in mice sensitized with galactosamine; assay type: in vivo, mice (strain (CD1))
# Protocol: In this model for organ failure, mice (strain (CD1)) are injected (i.p.) simultaneously with galactosamine (18 mg/mouse) and LPS (50 ng/mouse). The LD50 of LPS used in this model is approximately 30,000 lower than the LD50 of LPS used alone. The main toxic manifestation in this model is liver damage and mice develop severe hypoglycemia and die within 7-8 hours.
# Serial blood glucose determinations were done in individual animals (2 mice per group). […] Administration of the tyrphostins SSI 3, 400 ug/mouse or SSI 17, 200 ug/mouse 2 hours prior to galactosamine and LPS, prevents hypoglycemia (blood glucose level were approximately […] at 0 and the same after 24 hours) and mortality for over 5 days.
# [4] = test system: murine peritoneal macrophages; assay: NO2- production by periodate-activated murine peritoneal macrophages; assay type: cell-based
# Protocol: Nitrite (NO2-) levels were determined in supernatants at the time indicated, as described herein. (Table 5) Values are expressed as means of triplicate cultures. […] Two additional experiments yielded similar results.
# NO2- the product of NO oxidation is used to determine NO produced. Nitrite concentration in supernatants of macrophages was measured by a microplate assay method. 100 ul aliquots of supernatants were incubated with an equal volume of Griess reagent (1% sulfanilamide/O.1% naphthylethylene diamine dihydrochloride/2.5% H3PO4) at room temperature for 10 min. The absorbance at 550nm was determined in a microplate reader. Sodium nitrite was used as a standard.
# Mice were injected i.p. with 1 ml sodium periodate (5mM). Three to 4 days later, macrophages were washed from the peritoneal cavity with PBS. After centrifugation at 170g for 10 min at […], the cell pellet was resuspended in RPMI 1640 containing 10% heat-inactivated new born calf serum. Adherent macrophage monolayers were obtained by plating the cells in 96-well plastic trays at 4x10^5 cells/well for 2 hr at 37°C in 5% CO2/air. Nonadherent cells were removed by suction and complete medium was added. […]
# mice [5] = assay: LPS-induced lethal toxicity in mice
# EGF receptor = EGF receptor (Homo sapiens, UniProt P00533); conditions: even at concentrations above 100 uM; cited from earlier work
# EGF receptor, sequence (P00533 25-1210): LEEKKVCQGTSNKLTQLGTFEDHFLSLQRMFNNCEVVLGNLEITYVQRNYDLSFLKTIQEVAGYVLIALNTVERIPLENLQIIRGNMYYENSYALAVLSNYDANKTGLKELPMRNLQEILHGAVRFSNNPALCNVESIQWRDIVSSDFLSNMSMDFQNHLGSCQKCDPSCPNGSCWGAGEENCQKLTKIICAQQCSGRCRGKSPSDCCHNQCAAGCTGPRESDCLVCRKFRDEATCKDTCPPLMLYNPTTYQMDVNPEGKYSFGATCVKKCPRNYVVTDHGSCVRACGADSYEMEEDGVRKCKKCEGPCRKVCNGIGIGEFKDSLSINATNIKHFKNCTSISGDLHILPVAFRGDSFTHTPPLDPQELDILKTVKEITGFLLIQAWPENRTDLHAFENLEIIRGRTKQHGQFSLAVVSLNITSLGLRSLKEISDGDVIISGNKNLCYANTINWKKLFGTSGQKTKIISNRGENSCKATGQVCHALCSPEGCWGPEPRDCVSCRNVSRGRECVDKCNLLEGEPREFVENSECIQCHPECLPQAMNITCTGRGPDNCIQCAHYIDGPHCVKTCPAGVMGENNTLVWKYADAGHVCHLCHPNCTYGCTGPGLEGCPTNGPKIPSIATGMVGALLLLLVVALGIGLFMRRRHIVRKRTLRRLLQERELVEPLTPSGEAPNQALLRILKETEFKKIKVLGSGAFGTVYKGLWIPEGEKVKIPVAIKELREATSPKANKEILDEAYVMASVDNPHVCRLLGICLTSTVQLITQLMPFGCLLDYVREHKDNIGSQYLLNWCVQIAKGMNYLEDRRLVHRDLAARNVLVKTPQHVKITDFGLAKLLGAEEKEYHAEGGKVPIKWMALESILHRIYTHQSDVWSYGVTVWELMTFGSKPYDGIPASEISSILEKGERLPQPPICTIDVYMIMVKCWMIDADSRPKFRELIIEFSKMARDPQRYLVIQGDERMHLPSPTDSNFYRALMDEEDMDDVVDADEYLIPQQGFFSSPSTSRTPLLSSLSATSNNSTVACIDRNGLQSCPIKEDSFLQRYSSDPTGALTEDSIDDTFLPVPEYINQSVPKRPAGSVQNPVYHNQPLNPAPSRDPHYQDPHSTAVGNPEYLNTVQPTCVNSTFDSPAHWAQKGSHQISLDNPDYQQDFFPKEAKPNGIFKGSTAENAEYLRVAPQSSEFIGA
smiles,measurement,setting,value
N#CC(C#N)=Cc1ccc([N+](=O)[O-])c(O)c1 [SSI 3],mice survived,"mice [1]; 200 ug/mouse, LPS 1.5 mg/mouse",3 out of 5 mice
same,mice (still alive),mice [1]; 12 h,20 mice
same,mice (still alive),mice [1]; 36 h,18 mice
same,mice (still alive),mice [1]; 60 h,18 mice
same,serum TNF-α levels,"TNF-α; higher of two printed values, presumably bioassay, LPS alone 14",4 ng/mL
same,serum TNF-α levels,"TNF-α; lower of two printed values, presumably ELISA, LPS alone 7",3 ng/mL
same,Serum TNF-α,"TNF-α; LPS 200 µg/mouse, AG 300 µg/mouse 2 hrs prior to LPS, 1hr, mean (two single values)","2.8 (1.2, 4.4) ng/ml"
same,Serum TNF-α,"TNF-α; LPS 200 µg/mouse, AG 300 µg/mouse 2 hrs prior to LPS, 2hr, mean (two single values)","3.6 (2.7, 4.5) ng/ml"
same,Serum TNF-α,"TNF-α; no LPS (-), AG 300 µg/mouse, 1hr",16.3 ng/mL
same,alteration in blood lymphocyte and granulocytes,granulocytes; LPS-induced,not affected
same,LPS-induced accumulation of granulocytes in the lungs,"granulocytes; mouse, in vivo",not affected
same,blocking TNF-α induced cytotoxicity in vitro,[2],active
same,"TNF-α induced cytotoxicity, in vitro","[2]; A9 cells, 24 hours with TNF, cyclohexamide 50 ug/ml, tyrphostins added 2 hr prior to TNF, neutral red",reduced
same,TNF toxicity (percentage of live cells),"[2]; SSI 3 50 uM, SSI 16 2 uM, SSI 17 2 and 10 uM, A9 cells with cyclohexamine, viability after 20 hours, TNF 0.2, 0.05 and 1.0 ng/ml",prevent TNF toxicity to different degrees
same,effect on Her-2/neu receptor,Her-2/neu receptor,no effect
same,blood glucose level,"mice [3]; after 24 hours, SSI 3 400 ug/mouse or SSI 17 200 ug/mouse 2 hours prior to galactosamine (18 mg/mouse) and LPS (50 ng/mouse), 2 mice per group",approximately 100 % mg
same,hypoglycemia and mortality,"mice [3]; mortality for over 5 days, SSI 3 400 ug/mouse or SSI 17 200 ug/mouse 2 hours prior to galactosamine and LPS",prevents
same,LPS induced NO production,"[4]; 50 um, added 2 hours prior to LPS, 24 hours",markedly inhibit
same,NO production,"[4]; 50 um, from an initial level of 70 uM (no LPS), 24 hours",~30 µM
same,NO production,"[4]; 50 um, from an initial level of 40 (10 ug/ml of LPS), 24 hours",approximately 20 uM
same,NO2- production in unstimulated and LPS-stimulated periodate-activated murine macrophages,[4]; LPS (10 mg/ml),effectively inhibited
same,NO2- Production by Macrophages,"[4]; SSI 20 uM, LPS 10 ug, 1 DAY","30,2 µg"
same,NO2- Production by Macrophages,"[4]; SSI 20 uM, LPS 10 ug, 2 DAY",91 µg
same,NO2- Production by Macrophages,"[4]; SSI 20 uM, LPS 10 ug, 3 DAY","90,1 µg"
same,NO2- Production by Macrophages,"[4]; SSI 20 uM, no LPS, 1 DAY","11,8 µg"
same,NO2- Production by Macrophages,"[4]; SSI 20 uM, no LPS, 2 DAY","17,5 µg"
same,NO2- Production by Macrophages,"[4]; SSI 20 uM, no LPS, 3 DAY","7,5 µg"
same,NO2- Production by Macrophages,"[4]; SSI 50uM, LPS 10 ug, 1 DAY","6,1 µg"
same,NO2- Production by Macrophages,"[4]; SSI 50uM, LPS 10 ug, 2 DAY","31,4 µg"
same,NO2- Production by Macrophages,"[4]; SSI 50uM, LPS 10 ug, 3 DAY","19,2 µg"
same,NO2- Production by Macrophages,"[4]; SSI 50 uM, no LPS, 1 DAY",5 µg
same,NO2- Production by Macrophages,"[4]; SSI 50 uM, no LPS, 2 DAY","8,6 µg"
same,NO2- Production by Macrophages,"[4]; SSI 50 uM, no LPS, 3 DAY","4,8 µg"
same,extent of lethality,"mice [5]; 400 ug/mouse i.p. two hrs prior to LPS 1.5 mg/mouse, within 5 days, 2 mice out of 20, LPS alone 95%",10%
same,minimal dose that provided essentially full protection against LPS induced lethal toxicity,"mice [5]; LPS 1.5 mg/mouse, administered 2 hours prior to LPS",400 ug/mouse
same,protective effect on the LPS-induced lethal toxicity,mice [5]; administered 2 hours after LPS,essentially no protective effect
same,preventing the lethal toxicity,"mice [5]; administered at the time of LPS treatment, compared with 2 hr prior to LPS",less effective
same,protection against LPS induced lethal toxicity,"mice [5]; doses of 100 and 200 ug/mouse, 5 mice over 6 days",partial protection
same,effect on EGF receptor,EGF receptor,no effect
